Laboratory results reported in patent US9044486B2, “Method for prophylaxis or treatment of feline infectious peritonitis” (Cornell University, priority 2008, dated 2015).
Like-named read-outs stand apart in the source and are kept apart here. Where a SMILES comes first, the peptide text is derived from it. The star is where a group is joined. Cbz = O=C(OCc1ccccc1)*; CHN2 = [N-]=[N+]=C*; tBu = CC(C)(C)*

Columns and labels:
[1] = system: FIPV-1146; assay: Growth assay: production of extracellular virus by TCID50, A-72 cells; format: cell-based, Feline infectious peritonitis virus; settings: A-72 cells pretreated with 10 μM inhibitor; media collected 9 h post-infection; vs DMSO control
[2] = system: FECV-1683; assay: as above; format: cell-based, feline enteric coronavirus; settings: A-72 cells pretreated with 10 μM inhibitor; media collected 9 h post-infection; vs DMSO control
[3] = system: influenza virus; format: cell-based; settings: A-72 cells pretreated with inhibitor; control virus
[4] = system: FIPV-1146; format: cell-based, Feline infectious peritonitis virus; settings: for infection by FIPV-1146 (entry), inhibitor pre-incubation: five log dilutions of inhibitor 60 min pre-infection
[5] = system: FECV-1683; assay: Infection (entry) assay by immunofluorescence, A-72 cells; format: cell-based, feline enteric coronavirus; settings: for infection by FECV-1683 (entry), inhibitor pre-incubation: five log dilutions of inhibitor 60 min pre-infection; for infection by FECV-1683 (entry), inhibitor pre-incubation / infection by FECV-1683, inhibitor treatment after entry: fixed 6 h post-infection; for infection by FECV-1683, inhibitor treatment after entry: inhibitor 60 min post-infection
[6] = system: influenza virus; format: cell-based; settings: for influenza virus entry, cathepsin inhibitor treatment: anti-influenza nucleoprotein mAb H19
[7] = system: Sendai virus; format: cell-based
[8] = system: FIPV-1146; assay: Infection of feline cell lines CRFK, AK-D, Fc2Lu by immunofluorescence; format: cell-based, Feline infectious peritonitis virus
[9] = system: FECV-1683; assay: as above; format: cell-based, feline enteric coronavirus; settings: Fc2Lu cells, pretreated with 10 uM inhibitor or 10 mM NH4Cl, 6 h post-infection
[10] = system: FIPV-DF2; assay: as above; format: cell-based, Feline infectious peritonitis virus
[11] = system: FIPV-1146; assay: Infection of primary feline blood monocytes by immunofluorescence; format: cell-based, Feline infectious peritonitis virus; settings: monocytes pretreated with 10 μM inhibitor; 12 h post-infection
[12] = system: FIPV-DF2; assay: as above; format: cell-based, Feline infectious peritonitis virus; settings: monocytes pretreated with 10 μM inhibitor; 12 h post-infection
[13] = system: human coronaviruses; settings: cited from earlier work
[14] = system: murine coronavirus (A59); settings: cited from earlier work
[15] = system: FIPV; settings: cited from earlier work
[16] = system: serotype I FIPV black strain; assay: Infection of AK-D cells by a serotype I FCoV, immunofluorescence; format: cell-based, Feline infectious peritonitis virus; settings: AK-D cells pretreated with 10 uM inhibitor
Description: AK-D cells were pretreated with either 10 uM cathepsin B inhibitor CA074-Me (CatB-I), 10 uM cathepsin L inhibitor Z-FY(tBu)-DMK (CatL-I), or 10 mM NH4Cl, and then infected with virus the serotype I FIPV black strain. Immunofluorescence was performed essentially as described for FIG. 4.
AK-D cells were pretreated with either 10 uM cathepsin B inhibitor CA074-Me (CatB-I), 10 uM cathepsin L inhibitor Z-FY(tBu)-DMK (CatL-I), or 10 mM NH4Cl, and then infected with virus FIPV black strain, a serotype I FIPV. Immunofluorescence was performed essentially as described for FIG. 4.

[17] = target: cathepsin B (Homo sapiens, UniProt P07858); settings: kinact/Ki (k2/Ki); cited from earlier work
[18] = target: cathepsin L (Homo sapiens, UniProt P07711); settings: kinact/Ki (k2/Ki); cited from earlier work
Sequence of cathepsin L (P07711 114-333, species assumed): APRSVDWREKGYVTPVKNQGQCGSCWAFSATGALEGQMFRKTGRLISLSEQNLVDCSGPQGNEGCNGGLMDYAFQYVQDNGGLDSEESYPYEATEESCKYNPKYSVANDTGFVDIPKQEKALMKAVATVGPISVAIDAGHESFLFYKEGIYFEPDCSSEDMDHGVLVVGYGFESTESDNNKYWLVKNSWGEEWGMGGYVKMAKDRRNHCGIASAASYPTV

[19] = target: T1, cathepsin B (Mus musculus, UniProt P10605); settings: 10 mg/kg; cited from earlier work
T1 construct: host or cells: mouse (in vivo)
T1 sequence (P10605 80-333): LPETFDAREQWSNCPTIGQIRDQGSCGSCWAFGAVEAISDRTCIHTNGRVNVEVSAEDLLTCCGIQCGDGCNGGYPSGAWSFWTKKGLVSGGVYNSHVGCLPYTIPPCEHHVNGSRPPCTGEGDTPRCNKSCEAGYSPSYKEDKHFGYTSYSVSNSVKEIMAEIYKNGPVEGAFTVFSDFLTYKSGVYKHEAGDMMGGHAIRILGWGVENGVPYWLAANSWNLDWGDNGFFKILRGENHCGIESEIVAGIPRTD

[20] = A-72 cells, 1 h post-infection, concentrations shown in FIG. 3
[21] = A-72 cells, pretreatment with 50 nM bafilomycin A1
[22] = A-72 cells, post-treatment at the concentrations shown in FIG. 3
[23] = A-72 cells, fixed 6 h post-infection
[24] = CRFK, AK-D, Fc2Lu cells, pretreated with 10 uM inhibitor or 10 mM NH4Cl, 6 h post-infection

CCOC(=O)[C@H]1O[C@@H]1C(=O)N[C@@H](CC(C)C)C(=O)NCCC(C)C [E-64d, (2S,3S)-trans-Epoxysuccinyl-L-leucylamido-3-methylbutane ethyl ester]
production of FIPV-1146 viral particles (extracellular virus, TCID50) [1]: significantly reduced
production of FECV-1683 viral particles (extracellular virus, TCID50) [2]: significantly reduced
effect on influenza virus infection [3]: no effect

Cl.N [NH4Cl]
FIPV-1146 entry [4]: only partially blocked
FIPV-1146 infection, lysosomotropic agent treatment after entry [4]: minimal effect
FIPV-1146 infectivity, treatment after entry at higher concentrations [4]: significantly reduce infectivity
inhibition of entry of FIPV-1146 [4]: approximately 20%
FECV-1683 infection, lysosomotropic agent treatment after entry [5]: minimal effect
FECV-1683 infectivity, treatment after entry at higher concentrations [5]: significantly reduce infectivity
entry by FECV-1683 [5]: almost completely blocked entry
influenza virus entry [6]: completely inhibited
Sendai virus entry [7]: no reduction in entry
infection by FIPV-1146 of feline cell lines [8]: only a marginal effect
infection by FECV-1683 of feline cell lines [9]: selectively inhibited
infection by FIPV-DF2 of feline cell lines [10]: only a marginal effect

CO/C1=C\C(C)=C\[C@@H](C)[C@@H](O)[C@@H](C)C/C(C)=C/C=C/[C@H](OC)[C@@H]([C@@H](C)[C@@H](O)[C@H](C)[C@@]2(O)C[C@@H](O)[C@H](C)[C@@H](C(C)C)O2)OC1=O [bafilomycin A1]
FIPV-1146 infectivity, treatment after entry at higher concentrations [4]: significantly reduce infectivity
FIPV-1146 infection, lysosomotropic agent treatment after entry [4, 20]: minimal effect
inhibition of entry by FIPV-1146 [4, 21]: approximately 40%
FECV-1683 infectivity, treatment after entry at higher concentrations [5]: significantly reduce infectivity
FECV-1683 infection, lysosomotropic agent treatment after entry [5, 20]: minimal effect
entry of FECV-1683 [5, 21]: completely blocked entry
influenza virus infection, post-treatment [6, 22]: no effect
entry of influenza virus [6, 21]: completely blocked entry
Sendai virus entry ([7]; A-72 cells, bafilomycin A1 at the concentrations tested): unaffected
Sendai virus infection, post-treatment [7, 22]: no effect

CC(C)C[C@H](NC(=O)OCc1ccccc1)C(=O)NNC(=O)NNC(=O)[C@H](CC(C)C)NC(=O)[C@H](Cc1ccccc1)NC(=O)OC(C)(C)C [Boc1, 1-(N-Benzyloxycarbonyl-leucyl)-5-(N-Boc-phenylalanyl-leucyl)carbohydrazide]
production of FIPV-1146 viral particles (extracellular virus, TCID50) [1]: no significant effect
production of FECV-1683 viral particles (extracellular virus, TCID50) [2]: no significant effect
infection by FIPV-1146 (entry), inhibitor pre-incubation [4, 23]: no effect
infection by FECV-1683 (entry), inhibitor pre-incubation ([5]; A-72 cells): no effect
influenza virus entry, cathepsin inhibitor treatment [6, 23]: no effect

CC(C)(C)Oc1ccc(C[C@H](NC(=O)[C@H](Cc2ccccc2)NC(=O)OCc2ccccc2)C(=O)C=[N+]=[N-])cc1 [Z-FY-(tBu)-DMK, Z-Phe-Tyr(t-Bu)-diazomethylketone] (Cbz-Phe-Tyr(tBu)-CHN2)
production of FIPV-1146 viral particles (extracellular virus, TCID50) [1]: only a negligible effect
production of FECV-1683 viral particles (extracellular virus, TCID50) [2]: greatly diminished the propagation
infection by FIPV-1146 (entry), inhibitor pre-incubation [4, 23]: no effect on FIPV-1146 entry, except for some limited effect at the highest concentration tested
infection by FECV-1683 (entry), inhibitor pre-incubation ([5]; A-72 cells): potently blocked infection
infection by FECV-1683, inhibitor treatment after entry ([5]; A-72 cells): no effect
influenza virus entry, cathepsin inhibitor treatment ([6]; A-72 cells, […]): Neither the cathepsin B nor the cathepsin L inhibitor had an effect
infection by FIPV-1146 of feline cell lines [8, 24]: little or no effect
infection by FECV-1683 of feline cell lines [9]: selectively inhibited
infection by FIPV-DF2 of feline cell lines [10, 24]: little or no effect
effect on FIPV-1146 infection of primary feline monocytes (in words) [11]: no significant effect
effect on FIPV-DF2 infection of primary feline monocytes (in words) [12]: no significant effect

CC(=O)N[C@@H](CC(C)C)C(=O)N[C@@H](CC(C)C)C(=O)N[C@H](C=O)CCCNC(=N)N [leupeptin]
replication of human coronavirus [13]: inhibits
replication of murine coronavirus A59 [14]: does not strongly inhibit
inhibition of FIPV [15]: does not strongly inhibit

CCCNC(=O)[C@H]1O[C@@H]1C(=O)N[C@H](C(=O)N1CCC[C@H]1C(=O)OC)[C@@H](C)CC (relative stereo) [CA074-Me, [L-3-trans-(Propylcarbamoyl)oxirane-2-carbonyl]-L-isoleucyl-L-proline Methyl Ester]
production of FIPV-1146 viral particles (extracellular virus, TCID50) [1]: considerably limited the production
production of FECV-1683 viral particles (extracellular virus, TCID50) [2]: considerably limited the production
infection by FIPV-1146 (entry), inhibitor pre-incubation [4, 23]: almost completely blocked infection
infection by FIPV-1146, inhibitor treatment after entry ([4]; A-72 cells, inhibitor 60 min post-infection, fixed 6 h post-infection): no effect
infection by FECV-1683 (entry), inhibitor pre-incubation ([5]; A-72 cells): potently blocked infection
infection by FECV-1683, inhibitor treatment after entry ([5]; A-72 cells): no effect
influenza virus entry, cathepsin inhibitor treatment ([6]; A-72 cells, […]): Neither the cathepsin B nor the cathepsin L inhibitor had an effect
infection by FIPV-1146 of feline cell lines [8, 24]: almost completely prevented infection
infection by FECV-1683 of feline cell lines [9]: almost completely prevented infection
infection by FIPV-DF2 of feline cell lines [10, 24]: almost completely prevented infection
inhibition of infection by FIPV-1146 of primary feline blood monocytes [11]: 85-95%
inhibition of infection by FIPV-DF2 of primary feline blood monocytes [12]: 85-95%
replication of the serotype I FIPV strain [16]: can inhibit replication
apparent second order rate constant for cathepsin B [17]: 201 M⁻¹ s⁻¹
apparent second order rate constant for cathepsin L [18]: 85 M⁻¹ s⁻¹
inhibition of cathepsin B in a mouse [19]: inhibit cathepsin B

B1: cystatin C: a potent inhibitor of cathepsin B (protein, UniProt P01034 27-146, looked up)
Cystatin-C: SSPGKPPRLVGGPMDASVEEEGVRRALDFAVGEYNKASNDMYHSRALQVVRARKQIVAGVNYFLDVELGRTTCTKTQPNLDNCPFHDQPHLKRKAFCSFQIYAVPWQGTMTLSKSTCQDA
replication of human coronavirus [13]: inhibited replication
replication of murine coronavirus A59 [14]: lack of inhibition
